# According to patent US20090311217A1, “3-SUBSTITUTED-1H-INDOLE COMPOUNDS, THEIR USE AS MTOR KINASE AND PI3 KINASE INHIBITORS, AND THEIR SYNTHESES” (priority 2008, published 2009):
# Read-outs that look alike come from different tables or passages of the source.
# Key:
# [1] = system: acute lymphoblastic leukemia; details: in vivo; cited from earlier work
# [2] = system: human tumor xenograft models; details: cited from earlier work
# [3] = target: PI3K-gamma (Homo sapiens, UniProt P48736); experiment: PI3K-gamma fluorescence polarization assay; format: biochemical; details: PI3Kγ Avg. IC50
# PI3K-gamma, sequence (P48736 whole entry, species assumed, the tested form may be a part): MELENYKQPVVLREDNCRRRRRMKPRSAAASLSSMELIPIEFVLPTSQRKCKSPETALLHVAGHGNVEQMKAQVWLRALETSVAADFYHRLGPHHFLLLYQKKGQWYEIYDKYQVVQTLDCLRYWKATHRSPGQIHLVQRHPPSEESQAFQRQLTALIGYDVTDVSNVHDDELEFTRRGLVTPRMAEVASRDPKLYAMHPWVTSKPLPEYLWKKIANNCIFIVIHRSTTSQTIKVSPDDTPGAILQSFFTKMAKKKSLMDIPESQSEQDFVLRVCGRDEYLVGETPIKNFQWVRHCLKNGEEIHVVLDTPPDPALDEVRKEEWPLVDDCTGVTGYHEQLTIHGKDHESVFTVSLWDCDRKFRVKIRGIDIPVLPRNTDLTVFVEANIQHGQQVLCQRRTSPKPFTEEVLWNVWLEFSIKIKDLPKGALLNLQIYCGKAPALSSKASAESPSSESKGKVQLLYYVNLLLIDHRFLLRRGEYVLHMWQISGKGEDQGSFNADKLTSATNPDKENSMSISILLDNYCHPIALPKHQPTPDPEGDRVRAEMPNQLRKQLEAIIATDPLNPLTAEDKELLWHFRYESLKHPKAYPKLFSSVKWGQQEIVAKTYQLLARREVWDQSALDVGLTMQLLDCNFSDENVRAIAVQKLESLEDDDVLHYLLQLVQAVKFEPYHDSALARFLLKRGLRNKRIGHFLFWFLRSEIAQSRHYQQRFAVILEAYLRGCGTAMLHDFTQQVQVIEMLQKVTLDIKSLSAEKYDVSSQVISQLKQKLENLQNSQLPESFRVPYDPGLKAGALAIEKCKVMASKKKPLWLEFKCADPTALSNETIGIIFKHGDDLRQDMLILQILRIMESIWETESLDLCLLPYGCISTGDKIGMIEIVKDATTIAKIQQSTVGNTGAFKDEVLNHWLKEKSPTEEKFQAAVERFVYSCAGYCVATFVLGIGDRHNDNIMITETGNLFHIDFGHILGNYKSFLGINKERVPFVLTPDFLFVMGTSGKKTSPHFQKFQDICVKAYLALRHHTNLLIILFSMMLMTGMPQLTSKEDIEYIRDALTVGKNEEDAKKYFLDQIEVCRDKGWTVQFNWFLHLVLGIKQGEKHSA
# Summary of the method: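 Reactions in 5 mM HEPES pH 7, 2.5 mM MgCl2, 25 μM ATP with 2.5 μM diC8-PI(4,5)P2 and 5 ng enzyme, 1 h at 25° C, then EDTA quench. Product detected by FP using GST-GRP1 PH domain (100 nM) and BODIPY-TMR-IP4 tracer (5 nM); final DMSO 0.8%.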
# [4] = target: PI3K-alpha (Homo sapiens, UniProt P42336); experiment: PI3K-alpha fluorescence polarization assay; format: biochemical; details: read-out: PI3Kα Avg. IC50
# PI3K-alpha, sequence (P42336 whole entry, species assumed): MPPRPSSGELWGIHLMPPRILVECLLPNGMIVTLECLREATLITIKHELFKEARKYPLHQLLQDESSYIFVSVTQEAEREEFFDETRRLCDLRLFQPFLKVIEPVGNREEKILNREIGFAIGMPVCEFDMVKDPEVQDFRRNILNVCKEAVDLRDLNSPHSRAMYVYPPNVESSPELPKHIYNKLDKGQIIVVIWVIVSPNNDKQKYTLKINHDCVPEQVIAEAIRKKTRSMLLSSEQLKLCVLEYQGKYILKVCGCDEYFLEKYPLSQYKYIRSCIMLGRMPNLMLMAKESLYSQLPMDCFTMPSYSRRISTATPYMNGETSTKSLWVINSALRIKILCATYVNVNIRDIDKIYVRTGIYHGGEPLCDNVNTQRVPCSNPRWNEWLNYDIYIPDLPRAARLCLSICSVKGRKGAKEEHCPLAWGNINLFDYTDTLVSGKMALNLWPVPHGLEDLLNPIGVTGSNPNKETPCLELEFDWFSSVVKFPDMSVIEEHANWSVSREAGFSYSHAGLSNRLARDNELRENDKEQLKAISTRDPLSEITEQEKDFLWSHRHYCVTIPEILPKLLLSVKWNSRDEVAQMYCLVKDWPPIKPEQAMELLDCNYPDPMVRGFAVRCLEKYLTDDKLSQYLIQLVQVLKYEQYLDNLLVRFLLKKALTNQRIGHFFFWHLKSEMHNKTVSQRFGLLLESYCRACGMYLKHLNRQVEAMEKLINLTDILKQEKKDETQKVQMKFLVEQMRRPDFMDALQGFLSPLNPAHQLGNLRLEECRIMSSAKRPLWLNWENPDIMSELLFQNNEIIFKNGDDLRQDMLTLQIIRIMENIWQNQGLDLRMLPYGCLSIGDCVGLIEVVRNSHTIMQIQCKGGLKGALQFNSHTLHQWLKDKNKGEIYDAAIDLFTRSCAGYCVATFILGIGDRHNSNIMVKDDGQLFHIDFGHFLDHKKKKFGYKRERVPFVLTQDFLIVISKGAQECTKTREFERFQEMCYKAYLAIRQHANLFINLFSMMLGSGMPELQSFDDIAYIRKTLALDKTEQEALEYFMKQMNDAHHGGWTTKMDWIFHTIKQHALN
# PI3K-alpha, sequence (P27986 whole entry partner, species assumed): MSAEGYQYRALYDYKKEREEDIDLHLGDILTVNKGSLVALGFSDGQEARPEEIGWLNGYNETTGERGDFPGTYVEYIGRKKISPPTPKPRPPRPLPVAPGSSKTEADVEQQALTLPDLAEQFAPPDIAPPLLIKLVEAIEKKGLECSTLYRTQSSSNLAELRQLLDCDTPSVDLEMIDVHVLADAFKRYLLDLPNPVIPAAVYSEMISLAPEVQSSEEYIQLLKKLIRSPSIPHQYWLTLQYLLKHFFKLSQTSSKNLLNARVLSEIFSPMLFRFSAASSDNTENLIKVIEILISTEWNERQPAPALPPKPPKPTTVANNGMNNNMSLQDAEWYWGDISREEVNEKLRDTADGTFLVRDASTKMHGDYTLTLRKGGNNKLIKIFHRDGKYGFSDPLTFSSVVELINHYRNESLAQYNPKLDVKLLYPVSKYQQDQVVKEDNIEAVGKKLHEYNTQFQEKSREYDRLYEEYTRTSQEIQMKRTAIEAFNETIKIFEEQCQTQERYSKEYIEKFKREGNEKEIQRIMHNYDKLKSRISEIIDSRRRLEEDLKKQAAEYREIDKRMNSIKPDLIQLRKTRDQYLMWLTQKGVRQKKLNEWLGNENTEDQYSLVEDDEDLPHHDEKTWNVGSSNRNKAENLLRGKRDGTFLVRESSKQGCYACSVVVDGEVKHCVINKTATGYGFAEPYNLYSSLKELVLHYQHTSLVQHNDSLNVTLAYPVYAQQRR
# [5] = target: T1, human TOR (Homo sapiens, UniProt P42345); experiment: mTOR enzyme assay (DELFIA, His6-S6K substrate); format: biochemical; details: read-out: mTOR Kinase Avg. IC50
# T1 construct: FLAG
# [6] = target: mTOR (Homo sapiens, UniProt P42345); details: mTOR enzymes; cited from earlier work
compound,measurement,setting,value
CO[C@H]1C[C@@H]2CC[C@@H](C)[C@@](O)(O2)C(=O)C(=O)N2CCCC[C@H]2C(=O)O[C@H]([C@H](C)C[C@@H]2CC[C@@H](OC(=O)C(C)(CO)CO)[C@H](OC)C2)CC(=O)[C@H](C)/C=C(\C)[C@@H](O)[C@@H](OC)C(=O)[C@H](C)C[C@H](C)/C=C/C=C/C=C/1C [Torisel],activity in NOS/SCID xenograft mouse model of acute lymphoblastic leukemia,[1],active
"Oc1cccc(-c2nc(N3CCOCC3)c3oc4ncccc4c3n2)c1 [PI103, 3-(4-(4-morpholinyl)pyrido[3′,2′:4,5]furo[3,2-d]pyrimidin-2-yl)phenol]",activity in human tumor xenograft models,"[2]; I.P. dosing in mice, U87MG, PC3, MDA-MB-468, MDA-MB-435, HCT 116, SKOV3, IGROV-1",demonstrated activity
"COc1ccc(-c2cccc3c2c(/C=C2\Oc4cc(O)cc(O)c4C2=O)cn3C)cc1 [Example 376, (2Z)-4,6-dihydroxy-2-{[4-(4-methoxyphenyl)-1-methyl-1H-indol-3-yl]methylene}benzofuran-3(2H)-one]",IC50,[3],3800 nM
same,melting point,,289 to 291 °C (dec.)
same,IC50,[4],2080 nM
same,IC50,[5],128 nM
"FC(F)c1nc2ccccc2n1-c1nc(N2CCOCC2)nc(N2CCOCC2)n1 [ZSTK474, 2-(2-difluoromethylbenzoimidazol-1-yl)-4,6-dimorpholino-1,3,5-triazine]",IC50,[6],> 10000 nM
same,tumor growth in mouse human xenograft cancer models,"[2]; chronic oral administration, 400 mg/kg, A549, PC-3, WiDr",completely inhibited growth
"Cn1c(=O)n(-c2ccc(C(C)(C)C#N)cc2)c2c3cc(-c4cnc5ccccc5c4)ccc3ncc21 [NVP-BEZ-235, 2-methyl-2-(4-(3-methyl-2-oxo-8-(quinolin-3-yl)-2,3-dihydro-1H-imidazo[4,5-c]quinolin-1-yl)phenyl)propanenitrile]",activity in human tumor xenograft models,[2]; prostrate (PC-3) and glioblastoma (U-87),demonstrated activity
